How the values were obtained:
[1] = target: T1, hTfR1 (extracellular domain of hTfR, His6-tagged) (Homo sapiens, UniProt P02786); experiment: Surface plasmon resonance-based biosensor assay (Biacore T100), aptamer-hTfR binding affinity and kinetics; settings: for binding affinity and kinetics for hTfR1 (Biacore sensorgram), in words: compared with parent TR14; for ka (1/Ms), measured association rate / kd (1/s), measured disassociation rate / Kd: Biacore T100, biotinylated aptamer on streptavidin chip, hTfR1 protein injected, 1:1 binding with mass transfer; for Kd: read-out: K^D (M), equilibrium dissociation constant
T1 construct: (NP_003225.2) (Cys 89-Phe 760); His6 (N); purchased Sino Biological Inc 11020-H07H; host or cells: HEK293
T1 sequence (P02786 89-760): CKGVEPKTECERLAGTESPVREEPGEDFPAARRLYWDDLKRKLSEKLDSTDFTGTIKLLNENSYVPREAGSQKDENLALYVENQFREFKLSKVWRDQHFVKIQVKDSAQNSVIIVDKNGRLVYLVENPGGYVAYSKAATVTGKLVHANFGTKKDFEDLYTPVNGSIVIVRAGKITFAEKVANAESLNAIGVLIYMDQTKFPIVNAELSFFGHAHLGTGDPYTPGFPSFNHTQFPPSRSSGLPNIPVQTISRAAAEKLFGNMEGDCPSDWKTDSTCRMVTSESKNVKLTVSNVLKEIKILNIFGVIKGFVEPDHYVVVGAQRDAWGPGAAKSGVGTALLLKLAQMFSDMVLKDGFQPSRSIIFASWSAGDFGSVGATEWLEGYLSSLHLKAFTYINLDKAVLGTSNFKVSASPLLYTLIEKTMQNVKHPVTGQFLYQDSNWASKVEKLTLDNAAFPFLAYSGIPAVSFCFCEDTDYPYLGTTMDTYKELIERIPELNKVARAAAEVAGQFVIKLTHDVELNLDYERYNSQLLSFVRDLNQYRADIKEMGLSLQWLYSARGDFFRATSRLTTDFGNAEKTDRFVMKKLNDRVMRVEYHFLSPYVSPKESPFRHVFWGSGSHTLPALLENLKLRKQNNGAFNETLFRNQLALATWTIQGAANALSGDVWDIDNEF
Source text: Recombinant target protein. hTfR was purchased from Sino Biological Inc (11020-H07H, Beijing, P.R. China). The extracellular domain of hTfR (NP_003225.2) (Cys 89-Phe 760) was expressed with a His6-tag at the N-terminus in human cells (HEK293).
Surface plasmon resonance-based biosensor assay. The Biacore T100 (GE Healthcare, Uppsala, Sweden) was used to monitor label-free interactions of truncated TR14-hTfR1 in real time. The biotinylated aptamer was coupled to a streptavidin-coated Biacore chip (SensorChip SA, BR-1003-98, General Electric Company) by an injection in binding buffer at a concentration of 25 μg/mL (30 mM Tris-HCl, pH 7.5; 150 mM NaCl; 5 mM MgCl2) at 10 uL/min. The RNA was refolded by heating to 65° C., followed by cooling to 37° C., before immobilization. To measure binding kinetics, five concentrations of purified hTfR1 protein were injected at a flow rate of 10 uL/min. After binding, the surface was regenerated by injecting 50 mM NaOH at a flow rate of 15 μL/min for 20 s. Data from the control surface were subtracted. BIAevaluation software (GE Healthcare) was used for analysis. The binding data was fit to a 1:1 binding with a mass transfer model to calculate kinetics parameters as previously described (Hernandez et al, 2009; Soontornworajit et al, 2011)

PANC-Luc tumors = experiment: Liver-metastatic pancreatic cancer mouse model, combinational treatment with gemcitabine; type: in vivo, NOD/SCID mice; settings: gemcitabine alone 50 mg/kg 2 times/week I.V., compared to vehicle-treated control
Description: Intrahepatic pancreatic cancer liver-metastatic mouse model. To create an animal model harboring traceable tumors, a firefly luciferase fragment was inserted into the pLKO.1-AS3 backbone encoding the neo gene (National RNAi Core, Academia Sinica, Taiwan). One day before transduction, 293T cells were plated onto a 6-well plate. On the day of transduction, the medium was replaced with DMEM containing serial dilutions of the transfer plasmids and incubated for 5 h, then the medium was replaced. After two days, the culture medium containing recombinant lentiviral particles was obtained. PANC-1 cells were incubated with recombinant lentiviral particles for 24 h. […] Luciferase expression was assessed using the Luciferase Assay System. […] For the combinational treatment with gemcitabine, tumors were allowed to grow for 2 weeks after inoculation until they could be detected using an IVIS system, then mice were randomly divided into five groups of 10 animals/group. […] Tumor growth was monitored by evaluating bioluminescence using an IVIS 200 in vivo imaging platform (Caliper Life Sciences, Alameda, Calif.) and measuring the difference from before the first injection and one day after the last injection. […] The mice were imaged using the IVIS 200 and bioluminescent signals were analyzed using Living Image Software (Caliper Life Sciences, Alameda, Calif.). […]

TfR1 = target: T2, TfR1 (Homo sapiens, UniProt P02786); experiment: Cross-reactivity by live cell confocal imaging, U87MG cells (express TfR1, not TfR2); type: cell-based; settings: Cy3-labelled aptamer, U87MG cells (TfR1 only)
T2 construct: The U87MG cells only express TfR1, not TfR2; endogenous in cells; host or cells: U87MG (U-87 MG, ATCC HTB-14)
T2 sequence (P02786 whole entry): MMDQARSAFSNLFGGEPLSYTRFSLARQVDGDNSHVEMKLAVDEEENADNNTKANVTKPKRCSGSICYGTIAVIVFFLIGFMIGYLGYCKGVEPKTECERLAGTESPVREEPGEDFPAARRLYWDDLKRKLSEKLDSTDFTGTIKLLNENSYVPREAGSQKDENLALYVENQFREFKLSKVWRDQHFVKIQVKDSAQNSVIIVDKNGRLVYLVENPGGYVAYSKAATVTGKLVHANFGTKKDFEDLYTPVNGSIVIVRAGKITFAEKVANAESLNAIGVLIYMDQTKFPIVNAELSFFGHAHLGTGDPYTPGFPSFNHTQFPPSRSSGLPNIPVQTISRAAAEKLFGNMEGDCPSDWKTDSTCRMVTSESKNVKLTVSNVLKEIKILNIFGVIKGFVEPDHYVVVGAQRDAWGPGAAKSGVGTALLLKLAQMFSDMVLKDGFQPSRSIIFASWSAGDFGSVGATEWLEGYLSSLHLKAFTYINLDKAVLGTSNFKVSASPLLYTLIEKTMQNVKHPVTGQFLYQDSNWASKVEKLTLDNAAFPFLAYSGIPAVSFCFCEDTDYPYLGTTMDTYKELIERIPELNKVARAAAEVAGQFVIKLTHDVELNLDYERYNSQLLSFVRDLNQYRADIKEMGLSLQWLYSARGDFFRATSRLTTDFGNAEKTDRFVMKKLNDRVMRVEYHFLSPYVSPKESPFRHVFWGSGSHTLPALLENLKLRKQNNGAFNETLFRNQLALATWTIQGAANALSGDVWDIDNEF
Description: (§1) Cell line. HepG2 (Hepatocarcinoma, HB-8065) and PANC-1 (Pancreatic epithelioid carcinoma, CRL-1469), U-87 MG (Glioblastoma, HTB-14) were purchased from the American Type Culture Collection (ATCC, Manassas, Va.). The cells were cultured according to the suppliers' instructions. TB10 human glioma cell line was obtained from Vittorio de Franciscis lab in Italy. The cells were cultured according to the suppliers' instructions.
(§2) To determine the potential cross-reactivity of the parent TR14, S2 (43-nt) and ST1-3 (22-nt) truncates, we tested chemically synthesized parent TR14, TR14-[…] or TR14-ST1-3 aptamer labelled with Cy3 on live cells imaging by confocal microscopy. To test this, we choose two glioblastoma cell lines (U87MG and TB10) that are selectively expressed of TfR1 or TfR2. The U87MG cells only express TfR1, not TfR2. In contrast, TB10 expresses TfR2, not TfR1.

TfR2 = target: T3, TfR2 (Homo sapiens, UniProt Q9UP52); experiment: Cross-reactivity by live cell confocal imaging, TB10 cells (express TfR2, not TfR1); type: cell-based; settings: Cy3-labelled aptamer, TB10 cells (TfR2 only)
T3 construct: In contrast, TB10 expresses TfR2, not TfR1; endogenous in cells; host or cells: TB10 human glioma cells
T3 sequence (Q9UP52 1-801): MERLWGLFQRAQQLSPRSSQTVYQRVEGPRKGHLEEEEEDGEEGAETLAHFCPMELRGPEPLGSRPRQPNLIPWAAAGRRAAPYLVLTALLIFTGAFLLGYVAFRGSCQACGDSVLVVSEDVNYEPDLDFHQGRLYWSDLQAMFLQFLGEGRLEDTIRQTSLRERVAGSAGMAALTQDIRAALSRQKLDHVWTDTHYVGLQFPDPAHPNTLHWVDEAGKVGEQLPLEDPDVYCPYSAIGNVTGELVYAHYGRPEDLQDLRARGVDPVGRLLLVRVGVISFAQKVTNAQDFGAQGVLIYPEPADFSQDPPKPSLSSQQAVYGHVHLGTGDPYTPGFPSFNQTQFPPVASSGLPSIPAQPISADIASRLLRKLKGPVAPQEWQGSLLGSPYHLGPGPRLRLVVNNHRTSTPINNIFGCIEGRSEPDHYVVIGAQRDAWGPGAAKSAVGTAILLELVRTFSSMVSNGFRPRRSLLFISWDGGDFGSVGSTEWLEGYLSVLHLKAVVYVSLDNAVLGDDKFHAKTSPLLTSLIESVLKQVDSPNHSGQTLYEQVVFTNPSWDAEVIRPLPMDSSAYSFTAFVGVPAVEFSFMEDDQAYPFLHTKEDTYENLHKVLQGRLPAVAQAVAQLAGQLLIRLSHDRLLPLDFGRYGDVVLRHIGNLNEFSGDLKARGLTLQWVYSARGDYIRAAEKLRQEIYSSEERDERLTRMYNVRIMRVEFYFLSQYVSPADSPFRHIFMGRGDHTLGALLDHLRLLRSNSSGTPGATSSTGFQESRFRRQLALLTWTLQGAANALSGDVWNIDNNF
Description: as §1, §2

Compound | binding affinity and kinetics for hTfR1 (Biacore sensorgram), in words [1] | reduction of tumor volume (PANC-Luc tumors) | ka (1/Ms), measured association rate [1] | kd (1/s), measured disassociation rate [1] | binding to TfR1 (TfR1) | binding to TfR2 (TfR2) | Kd [1]
TR14 ST1-1: TR14 truncate, 40-nt, without 5′-GGG, chemically synthesized; SEQ ID NO:4 (GCUCAAUGCGUUCACGUUUAUUCACAUUUUUGAAUUGAGC; chemically synthesized, modifications not given here, further chemistry not given here) | neither TR14 ST1-1 nor TR14 ST1-2 were measurable | – | – | – | – | – | –
Nc1ccn([C@@H]2O[C@H](CO)[C@@H](O)C2(F)F)c(=O)n1 [gemcitabine, 2′, 2′-difluoro 2′deoxycytidine, reference compound] | – | ~70% | – | – | – | – | –
TR14 ST1-2: TR14 truncate, 32-nt, 5′-AAUGCGUUCACGUUUAUUCACAUUUUUGAAUU-3′; SEQ ID NO:5 (listed as RNA, chemistry not given here) | neither TR14 ST1-1 nor TR14 ST1-2 were measurable | – | – | – | – | – | –
TR14 S2: TR14 truncate, 43-nt, with 5′-GGG; SEQ ID NO:3 (GGGGCUCAAUGCGUUCACGUUUAUUCACAUUUUUGAAUUGAGC; listed as RNA, chemistry not given here) | improved kinetic constants | – | 8.34e+08 M⁻¹ s⁻¹ | 0.000577 s⁻¹ | selective binding to TfR1 | selective binding to TfR1 | –
TR14 S1: TR14 truncate, 46-nt, with 5′-GGG; SEQ ID NO:2 (GGGGCUCAAUGCGUUCACGUUUAUUCACAUUUUUGAAUUGAGCAUG; listed as RNA, chemistry not given here) | – | – | 13000 M⁻¹ s⁻¹ | 1.89e-05 s⁻¹ | – | – | 1.46e-09 M
TR14 ST1-3: TR14 truncate, 22-nt, 5′-UUUAUUCACAUUUUUGAAUUGA-3′; SEQ ID NO:6 (listed as RNA, chemistry not given here) | – | – | 6.3e+06 M⁻¹ s⁻¹ | 0.000138 s⁻¹ | cross-activity on both TfR1 and TfR2 | cross-activity on both TfR1 and TfR2 | 2.2e-11 M

— US20220396794A1, “APTAMERS AGAINST TRANSFERRIN RECEPTOR (TfR)” (APTERNA LIMITED, priority 2019, published 2022)
